≈ marks a conversion by molar mass, not a printed value. Calls of active or inactive are those of the source. The calls are words filed in the database; no cut-off is given here.
How the values were obtained:
Staphylococcus aureus [1] = assay: Antimicrobial activity against Methicillin susceptible Staphylococcus aureus 213/7 by twofold dilution technique; format: functional
Staphylococcus aureus [2] = assay: Antimicrobial activity against Methicillin susceptible Staphylococcus aureus 237/7 by twofold dilution technique; format: functional
Staphylococcus aureus [3] = assay: Antimicrobial activity against Methicillin susceptible Staphylococcus aureus 238/7 by twofold dilution technique; format: functional
Staphylococcus aureus [4] = assay: Antimicrobial activity against Methicillin susceptible Staphylococcus aureus 239/7 by twofold dilution technique; format: functional
Staphylococcus aureus [5] = assay: Antimicrobial activity against Methicillin susceptible Staphylococcus aureus 242/7 by twofold dilution technique; format: functional
Staphylococcus aureus [6] = assay: Antimicrobial activity against Methicillin susceptible Staphylococcus aureus 243/7 by twofold dilution technique; format: functional
Staphylococcus aureus [7] = assay: Antimicrobial activity against methicillin-resistant Staphylococcus aureus 140/6 by twofold dilution technique; format: functional
Staphylococcus aureus [8] = assay: Antimicrobial activity against methicillin-resistant Staphylococcus aureus 141/6 by twofold dilution technique; format: functional
Staphylococcus aureus [9] = assay: Antimicrobial activity against methicillin-resistant Staphylococcus aureus 143/6 by twofold dilution technique; format: functional
Staphylococcus aureus [10] = assay: Antimicrobial activity against methicillin-resistant Staphylococcus aureus 144/6 by twofold dilution technique; format: functional
Staphylococcus aureus [11] = assay: Antimicrobial activity against methicillin-resistant Staphylococcus aureus 146/6 by twofold dilution technique; format: functional
Staphylococcus aureus [12] = assay: Antimicrobial activity against methicillin-resistant Staphylococcus aureus 200/7 by twofold dilution technique; format: functional
Staphylococcus aureus [13] = assay: Antimicrobial activity against methicillin-resistant Staphylococcus aureus 217/7 by twofold dilution technique; format: functional
Staphylococcus aureus [14] = assay: Antimicrobial activity against methicillin-resistant Staphylococcus aureus 218/7 by twofold dilution technique; format: functional
Staphylococcus aureus [15] = assay: Antimicrobial activity against methicillin-resistant Staphylococcus aureus 236/7 by twofold dilution technique; format: functional
Bacillus cereus [16] = assay: Antimicrobial activity against Bacillus cereus ATCC 11778 at 5 ug after 18 hrs by disk diffusion method; format: functional; settings: ATCC 11778, 18 h, read-out: DIZ
Enterococcus hirae [17] = assay: Antimicrobial activity against Enterococcus hirae ATCC 10541 at 5 ug after 18 hrs by disk diffusion method; format: functional, organism-based
Micrococcus luteus [18] = assay: Antimicrobial activity against Micrococcus luteus ATCC 9341 at 5 ug after 18 hrs by disk diffusion method; format: functional; settings: ATCC 9341, 18 h, read-out: DIZ
Micrococcus luteus [19] = assay: Antimicrobial activity against Micrococcus luteus ATCC 10240 at 5 ug after 18 hrs by disk diffusion method; format: functional; settings: ATCC 10240, 18 h, read-out: DIZ
Staphylococcus aureus [20] = assay: Antimicrobial activity against Staphylococcus aureus NCTC 4163 after 18 hrs by twofold dilution technique; format: functional; settings: NCTC 4163, 18 h
Staphylococcus aureus [21] = assay: Antimicrobial activity against Staphylococcus aureus ATCC 25923 after 18 hrs by twofold dilution technique; format: functional; settings: ATCC 25923, 18 h
Staphylococcus aureus [22] = assay: Antimicrobial activity against Staphylococcus aureus ATCC 6538 after 18 hrs by twofold dilution technique; format: functional; settings: ATCC 6538, 18 h
Staphylococcus aureus [23] = assay: Antimicrobial activity against Staphylococcus aureus ATCC 29213 after 18 hrs by twofold dilution technique; format: functional; settings: ATCC 29213, 18 h
[24] = system: Staphylococcus epidermidis; assay: Antimicrobial activity against Staphylococcus epidermidis ATCC 12228 by twofold dilution technique; format: functional
Bacillus subtilis [25] = assay: Antimicrobial activity against Bacillus subtilis ATCC 6633 after 18 hrs by twofold dilution technique; format: functional; settings: ATCC 6633, 18 h
Bacillus cereus [26] = assay: Antimicrobial activity against Bacillus cereus ATCC 11778 after 18 hrs by twofold dilution technique; format: functional; settings: ATCC 11778, 18 h
Enterococcus hirae [27] = assay: Antimicrobial activity against Enterococcus hirae ATCC 10541 after 18 hrs by twofold dilution technique; format: functional; settings: ATCC 10541, 18 h
Micrococcus luteus [28] = assay: Antimicrobial activity against Micrococcus luteus ATCC 9341 after 18 hrs by twofold dilution technique; format: functional; settings: ATCC 9341, 18 h
Micrococcus luteus [29] = assay: Antimicrobial activity against Micrococcus luteus ATCC 10240 by twofold dilution technique; format: functional
Staphylococcus aureus [30] = assay: Antimicrobial activity against methicillin-resistant Staphylococcus aureus 136/6 by twofold dilution technique; format: functional
Staphylococcus aureus [31] = assay: Antimicrobial activity against Methicillin susceptible Staphylococcus aureus 206/7 by twofold dilution technique; format: functional
Staphylococcus aureus [32] = assay: Antimicrobial activity against Methicillin susceptible Staphylococcus aureus 207/7 by twofold dilution technique; format: functional
Staphylococcus aureus [33] = assay: Antimicrobial activity against Methicillin susceptible Staphylococcus aureus 208/7 by twofold dilution technique; format: functional
Staphylococcus aureus [34] = assay: Antimicrobial activity against Methicillin susceptible Staphylococcus aureus 212/7 by twofold dilution technique; format: functional
Staphylococcus aureus [35] = assay: microbe, parasite or virus in culture; settings: NCTC 4163, 18 h, read-out: DIZ
Description: Antimicrobial activity against Staphylococcus aureus NCTC 4163 at 5 ug after 18 hrs by disk diffusion method

[36] = system: Staphylococcus epidermidis; assay: microbe, parasite or virus in culture; settings: ATCC 12228, 18 h, read-out: DIZ
Description: Antimicrobial activity against Staphylococcus epidermidis ATCC 12228 at 5 ug after 18 hrs by disk diffusion method

Bacillus subtilis [37] = assay: microbe, parasite or virus in culture; settings: ATCC 6633, 18 h, read-out: DIZ
Description: Antimicrobial activity against Bacillus subtilis ATCC 6633 at 5 ug after 18 hrs by disk diffusion method

Staphylococcus aureus [38] = assay: microbe, parasite or virus in culture; settings: ATCC 25923, 18 h, read-out: DIZ
Description: Antimicrobial activity against Staphylococcus aureus ATCC 25923 at 5 ug after 18 hrs by disk diffusion method

Staphylococcus aureus [39] = assay: microbe, parasite or virus in culture; settings: ATCC 6538, 18 h, read-out: DIZ
Description: Antimicrobial activity against Staphylococcus aureus ATCC 6538 at 5 ug after 18 hrs by disk diffusion method

Staphylococcus aureus [40] = assay: microbe, parasite or virus in culture; settings: ATCC 29213, 18 h, read-out: DIZ
Description: Antimicrobial activity against Staphylococcus aureus ATCC 29213 at 5 ug after 18 hrs by disk diffusion method

O=C(O)c1cn(C2CC2)c2cc(N3CCNCC3)c(F)cc2c1=O [CIPROFLOXACIN]
MIC (Staphylococcus aureus [1]): 0.5 mg/L (≈ 1.51 µM)
MIC (Staphylococcus aureus [2]): 4 mg/L (≈ 12.1 µM)
MIC (Staphylococcus aureus [3]): 0.5 mg/L (≈ 1.51 µM)
MIC (Staphylococcus aureus [4]): 0.5 mg/L (≈ 1.51 µM)
MIC (Staphylococcus aureus [5]): 0.5 mg/L (≈ 1.51 µM)
MIC (Staphylococcus aureus [6]): 0.5 mg/L (≈ 1.51 µM)
MIC (Staphylococcus aureus [7]): > 8 mg/L
MIC (Staphylococcus aureus [8]): > 8 mg/L
MIC (Staphylococcus aureus [9]): > 8 mg/L
MIC (Staphylococcus aureus [10]): > 8 mg/L
MIC (Staphylococcus aureus [11]): > 8 mg/L
MIC (Staphylococcus aureus [12]): > 8 mg/L
MIC (Staphylococcus aureus [13]): > 8 mg/L
MIC (Staphylococcus aureus [14]): 4 mg/L (≈ 12.1 µM)
MIC (Staphylococcus aureus [15]): 1 mg/L (≈ 3.02 µM)
zone of inhibition at 5 µg/disc (Bacillus cereus [16]): 20 mm
diameter of the inhibition zone (DIZ) (Enterococcus hirae [17]): inactive
zone of inhibition at 5 µg/disc (Micrococcus luteus [18]): 22 mm
zone of inhibition at 5 µg/disc (Micrococcus luteus [19]): 24 mm
MIC (Staphylococcus aureus [20]): 0.5 mg/L (≈ 1.51 µM)
MIC (Staphylococcus aureus [21]): 0.5 mg/L (≈ 1.51 µM)
MIC (Staphylococcus aureus [22]): < 0.125 mg/L
MIC (Staphylococcus aureus [23]): 0.5 mg/L (≈ 1.51 µM)
MIC [24]: 4 mg/L (≈ 12.1 µM)
MIC (Bacillus subtilis [25]): 2 mg/L (≈ 6.04 µM)
MIC (Bacillus cereus [26]): 1 mg/L (≈ 3.02 µM)
MIC (Enterococcus hirae [27]): 0.5 mg/L (≈ 1.51 µM)
MIC (Micrococcus luteus [28]): 0.5 mg/L (≈ 1.51 µM)
MIC (Micrococcus luteus [29]): 0.5 mg/L (≈ 1.51 µM)
MIC (Staphylococcus aureus [30]): > 8 mg/L
MIC (Staphylococcus aureus [31]): 2 mg/L (≈ 6.04 µM)
MIC (Staphylococcus aureus [32]): 0.5 mg/L (≈ 1.51 µM)
MIC (Staphylococcus aureus [33]): 0.5 mg/L (≈ 1.51 µM)
MIC (Staphylococcus aureus [34]): 0.5 mg/L (≈ 1.51 µM)
zone of inhibition at 5 µg/disc (Staphylococcus aureus [35]): 26 mm
zone of inhibition at 5 µg/disc [36]: 30 mm
zone of inhibition at 5 µg/disc (Bacillus subtilis [37]): 40 mm
zone of inhibition at 5 µg/disc (Staphylococcus aureus [38]): 26 mm
zone of inhibition at 5 µg/disc (Staphylococcus aureus [39]): 28 mm
zone of inhibition at 5 µg/disc (Staphylococcus aureus [40]): 22 mm

— ChEMBL document CHEMBL1155271, “Synthesis, crystal structures and antibacterial activity studies of aza-derivatives of phytoalexin from cotton plant--gossypol” (2009)
